Measured values reported in PMC5768759 (2018).

What was measured:
[1] = test system: F-duplex-T (DNA, hairpin, Spacer18 (hexaethylene glycol) between 10 and 11) TATAGCTATATATAGCTATA; experiment: FRET melting; details: 5 mM K+, 50 mM Li+; 5 mM lithium cacodylate, pH 7.4; compound 0.2 μM, DNA 0.2 μM; no increment above error
[2] = test system: c-myc (DNA, G4) TGAGGGTGGGTAGGGTGGGTAA; experiment: fluorescent intercalator displacement; details: 100 mM K+; 10 mM lithium cacodylate, pH 7.4; thiazole orange 0.5 μM displaced; DNA 0.25 μM
[3] = test system: ht21 (DNA, G4) GGGTTAGGGTTAGGGTTAGGG; experiment: fluorescent intercalator displacement; details: 100 mM K+; 10 mM lithium cacodylate, pH 7.4; thiazole orange 0.5 μM displaced; DNA 0.25 μM; nearly 6-fold weaker than c-myc
[4] = test system: ds26 (DNA, duplex) CAATCGGATCGAATTCGATCCGATTG; experiment: fluorescent intercalator displacement; details: 100 mM K+; 10 mM lithium cacodylate, pH 7.4; thiazole orange 0.75 μM displaced; DNA 0.25 μM; nearly 10-fold weaker than c-myc

NCCCCCCCCCCN.[Cl-].[Cl-].[Pt+2].[Pt+2].c1ccc(-c2ccnc3c2ccc2c(-c4ccccc4)ccnc23)cc1.c1ccc(-c2ccnc3c2ccc2c(-c4ccccc4)ccnc23)cc1
binding [1]: no

NCCCCCCCCCN.[Cl-].[Cl-].[Pt+2].[Pt+2].c1ccc(-c2ccnc3c2ccc2c(-c4ccccc4)ccnc23)cc1.c1ccc(-c2ccnc3c2ccc2c(-c4ccccc4)ccnc23)cc1
binding [1]: no | DC50 [2]: 200 nM | DC50 [3]: 1170 nM | DC50 [4]: 1840 nM

NCCCCCCCCN.[Cl-].[Cl-].[Pt+2].[Pt+2].c1ccc(-c2ccnc3c2ccc2c(-c4ccccc4)ccnc23)cc1.c1ccc(-c2ccnc3c2ccc2c(-c4ccccc4)ccnc23)cc1
binding [1]: no

NCCCCCCCN.[Cl-].[Cl-].[Pt+2].[Pt+2].c1ccc(-c2ccnc3c2ccc2c(-c4ccccc4)ccnc23)cc1.c1ccc(-c2ccnc3c2ccc2c(-c4ccccc4)ccnc23)cc1
binding [1]: no
